Laboratory results from publication PMC3775947 (Clinical lymphoma, myeloma & leukemia, 2013).

What was measured:
patients with AML = details: LDAC or decitabine alone; cited from earlier work
[1] = Plasma pharmacokinetics of barasertib, barasertib-hQPA and LDAC; details: for AUC0–EOI, barasertib-hQPA / AUC0–t, barasertib-hQPA / Css, barasertib-hQPA: geometric mean (CV%)
[2] = plasma, barasertib 800 mg + LDAC 400 mg, n=6
[3] = plasma, barasertib 1000 mg + LDAC 400 mg, n=13
[4] = plasma, barasertib 1200 mg + LDAC 400 mg, n=3

In the case of `Nc1ncn([C@H]2C[C@H](O)[C@@H](CO)O2)c(=O)n1` [decitabine], the Rates of response (patients with AML) is given as about 20%.
With `CCN(CCO)CCCOc1ccc2c(Nc3cc(CC(=O)Nc4cccc(F)c4)[nH]n3)ncnc2c1` [Barasertib-hQPA, barasertib hydroxy-QPA] the “Steady-state plasma concentrations observed from, after start of infusion” value ([1]; 7-day continuous iv infusion of barasertib, Day 1, maintained until EOI) was 24 h, the Accumulation ([1]; 28-day cycles) was “Minimal accumulation” and the “Barasertib-hQPA exposure (AUC and Css) versus barasertib dose” value ([1]; 800-1200 mg, trend, low patient numbers) was “increase more than proportionally”. The “Clearance rate, geometric mean” value ([1]; barasertib 1000 mg cohort, range 23.4–43.3) was 30.5 L/h, the “Volume of distribution at steady state, geometric mean” value ([1]; barasertib 1000 mg cohort, range 509–1050) was 713 L and the “Exposure to barasertib-hQPA during the infusion relative to that of barasertib” value ([1]; during 7-day infusion) was “approximately four-fold”. For the same molecule, the “Terminal phase t½” value ([1]; following EOI, biphasic elimination) was 84 to 108 h, the “Detected in samples post EOI up to and including” value ([1]; plasma, LLOQ 0.25 ng/mL) was at most 336 h and the “AUC0–EOI, barasertib-hQPA” value [1, 2] was 23240 (14.9) ng.h/mL. The “AUC0–t, barasertib-hQPA” value [1, 2] was 24040 (3.4) ng.h/mL, the “Css, barasertib-hQPA” value [1, 2] was 147.3 (13.9) ng/mL and the “AUC0–EOI, barasertib-hQPA” value [1, 3] was 26860 (29.8) ng.h/mL. The “AUC0–t, barasertib-hQPA” value [1, 3] was 32840 (23.1) ng.h/mL, the “Css, barasertib-hQPA” value [1, 3] was 170.2 (27.4) ng/mL and the “AUC0–EOI, barasertib-hQPA” value [1, 4] was 37510 (26.6) ng.h/mL. The “AUC0–t, barasertib-hQPA” value [1, 4] was 41850 (28.2) ng.h/mL and the “Css, barasertib-hQPA” value [1, 4] was 249.2 (21.0) ng/mL.
